Results taken from ChEMBL document CHEMBL1201862, “PubChem BioAssay data set” (2004).
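Step 1: Grow cells in 96-well plates. Step 2: Expose to compound for 48 hours at 5 concentrations. Step 3: Interpolate endpoints linearly; if unreached, use highest concentration. GI50 is the concentration that inhibits growth by half.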 Active and inactive are the calls of the source. Rule as the data show it: active = GI50 up to about 1.1 µM and inactive = higher.

Legend:
Assay in all cases: DTP human tumour cell line panel, 48 h
A498 = tested on: A498
NCI/ADR-RES = tested on: NCI/ADR-RES
COLO 205 = tested on: COLO 205
U-251 = tested on: U-251
KM12 = tested on: KM12
OVCAR-3 = tested on: OVCAR-3
EKVX = tested on: EKVX
SF-268 = tested on: SF-268
T47D = tested on: T47D
NCI-H23 = tested on: NCI-H23
UACC-62 = tested on: UACC-62
SNB-75 = tested on: SNB-75
CAKI-1 = tested on: CAKI-1
HL-60 = tested on: HL-60
OVCAR-5 = tested on: OVCAR-5
SN12C = tested on: SN12C
SF-295 = tested on: SF-295
Malme-3M = tested on: Malme-3M

Measured: GI50

N#CC(c1ccccc1)N(CCOCCOCCN(C(=O)c1cccc2ccccc12)C(C#N)c1ccccc1)C(=O)c1cccc2ccccc12 (stereo unspecified)
inactive: A498 > 100 µM | NCI/ADR-RES > 100 µM | COLO 205 52.1 µM | U-251 > 100 µM | KM12 > 100 µM | OVCAR-3 > 100 µM | EKVX > 100 µM | SF-268 > 100 µM | T47D 4.1 µM | NCI-H23 > 100 µM | UACC-62 > 100 µM | SNB-75 > 100 µM | CAKI-1 > 100 µM | HL-60 31.7 µM | OVCAR-5 > 100 µM | SN12C > 100 µM | SF-295 > 100 µM | Malme-3M > 100 µM

C/C=C1\CC(C(=O)OCC)CCCCCCCCCCC1=O (stereo unspecified)
inactive: A498 > 100 µM | NCI/ADR-RES 34.7 µM | COLO 205 > 100 µM | U-251 55.2 µM | KM12 41.3 µM | EKVX 41.5 µM | SF-268 53.5 µM | T47D 26.7 µM | NCI-H23 37.6 µM | UACC-62 91.2 µM | SNB-75 27.7 µM | CAKI-1 > 100 µM | HL-60 36.6 µM | OVCAR-5 > 100 µM | SN12C 26.6 µM | SF-295 57.4 µM | Malme-3M 32.4 µM

C[C@]12CCC(=O)O[C@H]1CCCCO2
inactive: A498 > 100 µM | NCI/ADR-RES > 100 µM | COLO 205 > 100 µM | U-251 > 100 µM | KM12 > 100 µM | OVCAR-3 > 100 µM | EKVX > 100 µM | SF-268 > 100 µM | T47D > 100 µM | UACC-62 > 100 µM | SNB-75 87.5 µM | CAKI-1 > 100 µM | HL-60 > 100 µM | OVCAR-5 > 100 µM | SN12C > 100 µM | SF-295 > 100 µM | Malme-3M > 100 µM

C=C1CC2[C@H](C)C(=O)CCC2(C)C2=C1C1CCC(C(C)CCC(=C)C(C)C(=O)O)C1(C)CC2=O (stereo partly specified)
inactive: A498 > 100 µM | NCI/ADR-RES 84.1 µM | COLO 205 49.4 µM | U-251 55.1 µM | KM12 71.4 µM | OVCAR-3 30.5 µM | EKVX 71.8 µM | SF-268 > 100 µM | T47D 41.6 µM | NCI-H23 41.9 µM | UACC-62 51.8 µM | SNB-75 95.5 µM | CAKI-1 > 100 µM | HL-60 15.2 µM | OVCAR-5 > 100 µM | SN12C > 100 µM | SF-295 62.5 µM | Malme-3M > 100 µM

COC(=O)c1ccccc1C1CN=NC12Cc1ccc(C)c(C)c1C2=O (stereo unspecified)
inactive: A498 > 100 µM | NCI/ADR-RES 21.9 µM | COLO 205 53.7 µM | U-251 > 100 µM | KM12 29.2 µM | OVCAR-3 > 100 µM | EKVX > 100 µM | SF-268 > 100 µM | T47D 20.5 µM | NCI-H23 19.1 µM | UACC-62 74 µM | SNB-75 61.2 µM | CAKI-1 79.6 µM | HL-60 16.3 µM | OVCAR-5 > 100 µM | SN12C > 100 µM | SF-295 46.5 µM | Malme-3M > 100 µM

C=CCOc1ccc(C(=N/NC(=O)c2ccccc2)/N=N/c2ccc([N+](=O)[O-])cc2)cc1OC
inactive: A498 > 100 µM | NCI/ADR-RES > 100 µM | COLO 205 > 100 µM | U-251 > 100 µM | KM12 > 100 µM | OVCAR-3 > 100 µM | EKVX > 100 µM | SF-268 > 100 µM | T47D 29 µM | NCI-H23 > 100 µM | UACC-62 > 100 µM | SNB-75 > 100 µM | CAKI-1 > 100 µM | HL-60 93.3 µM | OVCAR-5 > 100 µM | SN12C > 100 µM | SF-295 > 100 µM | Malme-3M > 100 µM
